Measurements taken from US9480259B2, “Pyrazolopyrans having herbicidal and pharmaceutical properties” (BASF SE, priority 2012, dated 2016).

What was measured:
[1] = system: SETFA, AMARE, POLCO, CHEAL, GALAP; test: Greenhouse herbicidal test, post-emergence, weed panel; type: in vivo; conditions: application rate 1 kg/ha, scale 0 to 100
Excerpt: (§1) The seeds of the test plants were sown separately for each species. For the post-emergence treatment, the test plants were first grown to a height of 2 to 5 cm, depending on the plant habit, and only then treated with the active ingredients which had been suspended or emulsified in water. For this purpose, the test plants were either sown directly and grown in the same containers, or they were first grown separately as seedlings and transplanted into the test containers a few days prior to treatment. Depending on the species, the plants were kept at 10-25° C. or 20-35° C. The test period extended over 8 to 9 days. During this time, the plants were tended, and their response to the individual treatments was evaluated. Evaluation was carried out using a scale from 0 to 100. 100 means no emergence of the plants, or complete destruction of at least the aerial moieties, and 0 means no damage, or normal course of growth. A good herbicidal activity is given at values of at least 70 and a very good herbicidal activity is given at values of at least 85. The plants used in the greenhouse experiments belonged to the following species: [table]

[2] = system: POLCO (Poligonum convolvulus); test: Greenhouse herbicidal test, post-emergence, POLCO; type: in vivo; conditions: application rate 1 kg/ha; for herbicidal activity against POLCO: scale 0 to 100; for pest or weed control at 1000 g/ha: Poligonum convolvulus, scale 0 to 100, read-out: herbicidal activity against POLCO
Excerpt: as §1

[3] = system: CHEAL (Chenopodium album); test: Greenhouse herbicidal test, post-emergence, CHEAL; type: in vivo; conditions: application rate 1 kg/ha; for herbicidal activity against CHEAL: scale 0 to 100; for pest or weed control at 1000 g/ha: Chenopodium album, scale 0 to 100, read-out: herbicidal activity against CHEAL
Excerpt: as §1

[4] = system: AMARE (Amaranthus retroflexus); test: Greenhouse herbicidal test, post-emergence, AMARE; type: in vivo; conditions: application rate 1 kg/ha; for herbicidal activity against AMARE: scale 0 to 100; for pest or weed control at 1000 g/ha: Amaranthus retroflexus, scale 0 to 100, read-out: herbicidal activity against AMARE
Excerpt: as §1

[5] = target: Arabidopsis thaliana SHMT; test: SHMT activity assay (ED50 SHMT), coupled with N5,N10-CH2-THF dehydrogenase, NADH at 340 nm; type: biochemical
Outline: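 His-tagged SHMT purified on Ni-NTA. NADH formation followed at 340 nm for 30 min; ED50 from inhibition of initial velocity.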

[6] = system: SETFA (Setaria faberi); test: Greenhouse herbicidal test, post-emergence, SETFA; type: in vivo; conditions: application rate 1 kg/ha, scale 0 to 100, read-out: herbicidal activity against SETFA
Excerpt: as §1

[7] = Table 2, Arabidopsis thaliana SHMT enzyme assay, values given as upper bounds
[8] = Table 2, values given as upper bounds
[9] = inhibition of initial velocity of Arabidopsis thaliana SHMT

Compound	herbicidal activity against at least three of the weeds SETFA, AMARE, POLCO, CHEAL, GALAP [1]	pest or weed control at 1000 g/ha [3] [%]	pest or weed control at 1000 g/ha [4] [%]	EC50 [5, 9] [nM]	other results
Cc1n[nH]c2c1C(c1cc(Cl)cc(Cl)c1)(C(C)C)C(C#N)=C(N)O2 (racemic) [Compound 2.112]	good or very good				
Cc1n[nH]c2c1C(c1cc(-c3nnnn3C)cc(C(F)(F)F)c1)(C1CCC1)C(C#N)=C(N)O2 (racemic) [Compound 2.399]	good or very good				herbicidal activity against POLCO [2]: good (A good herbicidal activity is given at values of at least 70); herbicidal activity against CHEAL [3]: very good (a very good herbicidal activity is given at values of at least 85); herbicidal activity against AMARE [4]: very good (a very good herbicidal activity is given at values of at least 85)
Cc1n[nH]c2c1C(c1cc(Cl)cc(C#N)c1)(C1(F)CC1)C(C#N)=C(N)O2 (racemic) [Compound 2.400]	good or very good				
Cc1n[nH]c2c1C(c1cc(C#N)cc(C(F)(F)F)c1)(C1(F)CC1)C(C#N)=C(N)O2 (racemic) [Compound 2.404]	good or very good				
Cc1n[nH]c2c1C(c1cc(C(N)=S)cc(C(F)(F)F)c1)(C1CCC1)C(C#N)=C(N)O2 (racemic) [Compound 2.409]	good or very good				herbicidal activity against POLCO [2]: very good (a very good herbicidal activity is given at values of at least 85); herbicidal activity against CHEAL [3]: very good (a very good herbicidal activity is given at values of at least 85); herbicidal activity against AMARE [4]: good (A good herbicidal activity is given at values of at least 70)
CC(=O)N(C)c1cc(C#N)cc(C2(C3CCC3)C(C#N)=C(N)Oc3[nH]nc(C)c32)c1 (racemic) [Compound 2.414]	good or very good				
Cc1n[nH]c2c1C(c1cc(C#N)cc(OC(F)(F)F)c1)(C1CCC1)C(C#N)=C(N)O2 (racemic) [Compound 2.417]	good or very good				
CC(=O)N(C)c1cc(C(F)(F)F)cc(C2(C3(F)CC3)C(C#N)=C(N)Oc3[nH]nc(C)c32)c1 (racemic) [Compound 2.439]	good or very good				
Cc1n[nH]c2c1C(c1cc(C(F)(F)F)cc(C(F)(F)F)c1)(C1(F)CC1)C(C#N)=C(N)O2 (centres unmarked) [Compound 2.247]	good or very good	≥ 85	≥ 85		pest or weed control at 1000 g/ha [2]: ≥ 85%; EC50 [5, 7]: < 10 nM
Cc1n[nH]c2c1C(c1cc(Cl)cc(C#N)c1)(C1CCC1)C(C#N)=C(N)O2 (centres unmarked) [Compound 2.280]	good or very good	≥ 85	≥ 85		pest or weed control at 1000 g/ha [2]: ≥ 85%; EC50 [5, 7]: < 10 nM
Cc1n[nH]c2c1C(c1cc(Br)cc(C#N)c1)(C1CCC1)C(C#N)=C(N)O2 (centres unmarked) [Compound 2.281]	good or very good	≥ 85	≥ 85		pest or weed control at 1000 g/ha [2]: ≥ 85%; EC50 [5, 7]: < 10 nM
Cc1n[nH]c2c1C(c1cc(C#N)cc(C(F)(F)F)c1)(C1CCC1)C(C#N)=C(N)O2 (centres unmarked) [Compound 2.282]	good or very good	≥ 85	≥ 85		pest or weed control at 1000 g/ha [2]: ≥ 85%; EC50 [5, 7]: < 10 nM
Cc1n[nH]c2c1C(c1cc(C#N)cc(C#N)c1)(C1CCC1)C(C#N)=C(N)O2 (centres unmarked) [Compound 2.283]	good or very good	≥ 85	≥ 85		pest or weed control at 1000 g/ha [2]: ≥ 85%; EC50 [5, 7]: < 100 nM
Cc1n[nH]c2c1C(c1cc(C#N)cc(C#N)c1)(C(C)C)C(C#N)=C(N)O2 (centres unmarked) [Compound 2.335]	good or very good	≥ 85	≥ 85		pest or weed control at 1000 g/ha [2]: ≥ 85%; EC50 [5, 7]: < 10 nM
Cc1n[nH]c2c1C(c1cc(C#N)cc(C(F)(F)F)c1)(C1CC1)C(C#N)=C(N)O2 (centres unmarked) [Compound 2.362]	good or very good	≥ 85	≥ 85		pest or weed control at 1000 g/ha [2]: ≥ 85%; EC50 [5, 7]: < 10 nM
Cc1n[nH]c2c1C(c1cc(OCC#N)cc(C(F)(F)F)c1)(C1CCC1)C(C#N)=C(N)O2 (centres unmarked) [Compound 2.470]	good or very good	≥ 85	≥ 85		pest or weed control at 1000 g/ha [6]: ≥ 85%; EC50 [5, 8]: < 100 nM
Cc1n[nH]c2c1C(c1cc(C#N)cc(C#N)c1)(C1(F)CCC1)C(C#N)=C(N)O2 (centres unmarked) [Compound 2.569]	good or very good	≥ 85	≥ 85		pest or weed control at 1000 g/ha [2]: ≥ 85%; EC50 [5, 8]: < 100 nM
CCC(=O)N(C)c1cc(C#N)cc(C2(C3CCC3)C(C#N)=C(N)Oc3[nH]nc(C)c32)c1 (centres unmarked) [Compound 2.611]	good or very good	≥ 85	≥ 85		pest or weed control at 1000 g/ha [2]: ≥ 85%; EC50 [5, 8]: < 10 nM
CCCC(=O)N(C)c1cc(C#N)cc(C2(C3CCC3)C(C#N)=C(N)Oc3[nH]nc(C)c32)c1 (centres unmarked) [Compound 2.612]	good or very good				EC50 [5, 8]: < 10 nM

Compound	herbicidal activity against at least three of the weeds SETFA, AMARE, POLCO, CHEAL, GALAP [1]	pest or weed control at 1000 g/ha [3] [%]	pest or weed control at 1000 g/ha [4] [%]	EC50 [5, 9] [nM]	other results
COCC(=O)N(C)c1cc(C#N)cc(C2(C3CCC3)C(C#N)=C(N)Oc3[nH]nc(C)c32)c1 (centres unmarked) [Compound 2.615]	good or very good	≥ 85	≥ 85		pest or weed control at 1000 g/ha [2]: ≥ 85%; EC50 [5, 8]: < 10 nM
COCCOCC(=O)N(C)c1cc(C#N)cc(C2(C3CCC3)C(C#N)=C(N)Oc3[nH]nc(C)c32)c1 (centres unmarked) [Compound 2.616]	good or very good	≥ 85	≥ 85		EC50 [5, 8]: < 10 nM
Cc1n[nH]c2c1C(c1cc(C#N)cc(N(C)S(C)(=O)=O)c1)(C1CCC1)C(C#N)=C(N)O2 (centres unmarked) [Compound 2.617]	good or very good	≥ 85	≥ 85		EC50 [5, 8]: < 10 nM
Cc1n[nH]c2c1C(c1cc(C#N)cc(N(C)C(=O)CC#N)c1)(C1CCC1)C(C#N)=C(N)O2 (centres unmarked) [Compound 2.635]	good or very good	≥ 85	≥ 85		EC50 [5, 8]: < 10 nM
Cc1n[nH]c2c1C(c1cc(-c3ccccc3)cs1)(C1CC1)C(C#N)=C(N)O2 (centres unmarked) [Compound 4.64]				< 1000	
Cc1n[nH]c2c1C(c1cc(C(=O)O)cs1)(C1CCC1)C(C#N)=C(N)O2 (centres unmarked) [Compound 4.66]				< 1000	
Cc1n[nH]c2c1C(C(C)C)(C(F)(F)c1cccc(Cl)c1)C(C#N)=C(N)O2 (centres unmarked) [Compound 4.67]				< 1000	
Cc1n[nH]c2c1C(c1cc(-c3cccc(C(F)(F)F)c3)cs1)(C1CCC1)C(C#N)=C(N)O2 (centres unmarked) [Compound 4.68]				< 1000	
CCC1(c2ccc3c(c2)C(C)(C)CCC3(C)C)C(C#N)=C(N)Oc2[nH]nc(C)c21 (centres unmarked) [Compound 4.69]				< 1000	
CCC1(c2ccc3c(c2)C(C)(C)C(C)C3(C)C)C(C#N)=C(N)Oc2[nH]nc(C)c21 (centres unmarked) [Compound 4.71]				< 1000	
CCC1(c2ccc3[nH]c(=O)oc3c2)C(C#N)=C(N)Oc2[nH]nc(C)c21 (centres unmarked) [Compound 4.72]				< 1000	
Cc1n[nH]c2c1C(c1ccc(Cl)s1)(C1CC1)C(C#N)=C(N)O2 (centres unmarked) [Compound 4.74]				< 1000	
CCC1(CCc2ccccc2)C(C#N)=C(N)Oc2[nH]nc(C)c21 (centres unmarked) [Compound 4.76]				< 1000	
COc1ccc2cc(C3(C4CCC4)C(C#N)=C(N)Oc4[nH]nc(CO)c43)ccc2c1 (centres unmarked) [Compound 4.77]				< 1000	
CCc1n[nH]c2c1C(c1ccc(Cl)s1)(C1CC1)C(C#N)=C(N)O2 (centres unmarked) [Compound 4.78]				< 10000	
CCC1(c2cc(C)co2)C(C#N)=C(N)Oc2[nH]nc(C)c21 (centres unmarked) [Compound 4.79]				< 10000	
Cc1n[nH]c2c1C(c1ccc(C(=O)O)s1)(C1CCC1)C(C#N)=C(N)O2 (centres unmarked) [Compound 4.80]				< 10000	
Cc1n[nH]c2c1C(c1cc(-c3ccccc3)cs1)(C(C)C)C(C#N)=C(N)O2 (centres unmarked) [Compound 4.81]				< 10000	
N#CC1=C(N)Oc2[nH]nc(C(F)F)c2C1(c1ccc(Cl)s1)C1CC1 (centres unmarked) [Compound 4.83]				< 10000	
